24 molecules from patent US8178538B2, “Pyridazinones” (Hoffmann-La Roche Inc., priority 2008, dated 2012) can be followed below.

The structures appear in SMILES notation.

T1 sequence (Q9Y233 715-1055): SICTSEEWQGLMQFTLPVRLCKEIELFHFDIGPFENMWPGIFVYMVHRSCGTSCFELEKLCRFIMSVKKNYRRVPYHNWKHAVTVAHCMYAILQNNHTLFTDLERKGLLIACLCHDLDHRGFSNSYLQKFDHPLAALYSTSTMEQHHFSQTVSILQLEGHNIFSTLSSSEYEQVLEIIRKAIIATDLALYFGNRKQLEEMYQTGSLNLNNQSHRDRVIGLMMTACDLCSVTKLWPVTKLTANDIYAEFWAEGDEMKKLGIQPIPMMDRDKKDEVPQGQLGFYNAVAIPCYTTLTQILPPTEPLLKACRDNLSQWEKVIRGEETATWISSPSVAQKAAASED

This assay addresses T1, PDE10A2 (Homo sapiens, UniProt Q9Y233).
T1 construct: residues serine 449 to aspartate 789; His6 (H6) with thrombin cleavage site (N, cleaved yes); made in house; host or cells: E. coli BL21(DE3) pLysS
In words: PDE10A2 inhibition, Scintillation Proximity Assay (SPA). To be noted: catalytic domain of human PDE10A2 (S449-D789), 0.25 nM enzyme, 50 nM cGMP + 50 nM [3H]-cGMP, 30 minutes at room temperature. In kind it is biochemical. The procedure: The following tests were carried out in order to determine the activity of the compounds of the present invention. PDE10 activity of the compounds of the present invention is determined using a Scintillation Proximity Assay (SPA)-based method similar to the one previously described (Fawcett, L. et al., Proc Natl Acad Sci USA (2000) 97(7):3702-3707).
PDE10A1 and PDE10A2 are two splice variants of PDE10A. There are these 2 splice variants known, which differ in the N-terminal part of the protein. The catalytic domains of PDE10A1 and PDE10A2 are identical. The assay for PDE10A2 described below is therefore also representative for PDE10A1 and also for PDE10A in general.
The PDE10A2 assay was performed in a two step procedure in 96-well micro titer plates. The reaction mixture of 80 μl contained 20 mM HEPES/10 mM MgCl2/[…] (pH 7.5), 50 nM cGMP (Sigma) and 50 nM [^3H]-cGMP (GE Healthcare), 0.25 nM PDE10A2 with or without a specific test compound. A range of concentrations of the potential inhibitor was used to generate data for calculating the concentration of inhibitor resulting in 50% of the effect (e.g. IC50, the concentration of the competitor inhibiting PDE10A2 activity 50%). Non-specific activity was tested without the enzyme. The reaction was initiated by addition of the substrate solution (cGMP and [^3H]-cGMP) and allowed to progress for 30 minutes at room temperature. The reaction was terminated by transferring 50 μl of the reaction mixture into an OptiPlate (Perkin Elmer) containing 25 μl of YSi-SPA scintillation beads (GE Healthcare) in 18 mM zinc sulphate solution (stop reagent). After 1 h under shaking, the plate was centrifuged one minute at 1000 rpm to allow beads to settle. Afterwards, radioactive counts were measured on a Perkin Elmer TopCount Scintillation plate reader.
The catalytic domain of human PDE10A2, residues serine 449 to aspartate 789, was amplified by PCR using cDNA (Origene) and the oligonucleotides 5′-GGGGACAAGTTT […]-3′ (SEQ ID NO. 1) (with AttB1 recombination site in bold and thrombin protease cleavage site in italics) and 5′-[…] GCTG-3′ (SEQ ID NO. 2) (with AttB2 recombination site in bold) which conferred Gateway recombination sites. The PCR product was used in a BP recombination reaction with pDONR221 to generate pENTR Thm-PDE10A2(S449-D789) which was DNA sequence verified and then used in an LR recombination reaction with a Gateway modified version of pET11a. The resulting expression vector, placT7.2H6-(gw1)-Thm-PDE10A2(S449-D789) was DNA sequence confirmed and transformed into E. coli strain BL21(DE3) pLysS and recombinant protein was produced in TB medium at 20° C. by induction to a final IPTG concentration of 0.5 mM at an optical density of 1.0 at 600 nm for 20 hours. About 30% of the protein was in the soluble fraction of the cell homogenate. The protein was purified using sequential chromatography on Ni-NTA and HiTrapQ/HiTrapS. After thrombin digest at room temperature a HiTrapChelating/HiTrap Benzamindin chromatography removed impurities, uncleaved protein and thrombin. Final purification of PDE10A2(S449-D789) was performed on a Superdex 75 size exclusion chromatography equilibrated with 25 mM HEPES pH 8.4, 0.15 M NaCl. The yield of pure protein was 2 mg/liter of culture volume is relatively low. The purity of the protein was >95%, monomeric and monodisperse as shown by SDS-PAGE, HPLC and analytical ultracentrifugation.
Take `O=c1ccn(-c2cccc(OC(F)(F)F)c2)nc1-c1ccnn1-c1ccc(F)cc1` [Example 49, 3-[2-(4-Fluoro-phenyl)-2H-pyrazol-3-yl]-1-(3-trifluoromethoxy-phenyl)-1H-pyridazin-4-one]: the IC50 amounted to 27 nM.

With `CC(O)c1cccc(-n2ccc(=O)c(-c3ccnn3-c3ccccc3F)n2)c1` (stereo not drawn) [Example 298, 3-[2-(2-Fluoro-phenyl)-2H-pyrazol-3-yl]-1-[3-(1-hydroxy-ethyl)-phenyl]-1H-pyridazin-4-one], the half-maximal inhibitory concentration (IC50) came to 26 nM. Then `O=c1ccn(-c2ccc(OCC(F)(F)F)cc2)nc1-c1ccnn1-c1cccc(Cl)c1` [Example 257, 3-[2-(3-Chloro-phenyl)-2H-pyrazol-3-yl]-1-[4-(2,2,2-trifluoro-ethoxy)-phenyl]-1H-pyridazin-4-one], with 3 nM. Then `O=c1ccn(-c2ccc3c(c2)OC(F)(F)O3)nc1-c1ccnn1-c1ccc2c(c1)OCCO2` [Example 101, 1-(2,2-Difluoro-benzo[1,3]dioxol-5-yl)-3-[2-(2,3-dihydro-benzo[1,4]dioxin-6-yl)-2H-pyrazol-3-yl]-1H-pyridazin-4-one], with 37 nM; and `O=c1ccn(-c2cccc(OC(F)F)c2)nc1-c1ccnn1-c1ccnc2ccc(F)cc12` [Example 150, 1-(3-Difluoromethoxy-phenyl)-3-[2-(6-fluoro-quinolin-4-yl)-2H-pyrazol-3-yl]-1H-pyridazin-4-one], with 5 nM; and `N#Cc1cccc(-n2nccc2-c2nn(-c3cccc4c3OC(F)(F)O4)ccc2=O)c1` [Example 129, 3-{5-[1-(2,2-Difluoro-benzo[1,3]dioxol-4-yl)-4-oxo-1,4-dihydro-pyridazin-3-yl]-pyrazol-1-yl}-benzonitrile], with 80 nM. In the case of `N#Cc1cccc(-n2nccc2-c2nn(-c3cccc(C(F)(F)F)c3)ccc2=O)c1` [Example 14, 3-{5-[4-Oxo-1-(3-trifluoromethyl-phenyl)-1,4-dihydro-pyridazin-3-yl]-pyrazol-1-yl}-benzonitrile], the IC50 was determined as 38 nM. In the case of `O=c1ccn(-c2cccc(S(=O)(=O)C(F)(F)F)c2)nc1-c1ccnn1-c1ccccc1` [Example 281, 3-(2-Phenyl-2H-pyrazol-3-yl)-1-(3-trifluoromethanesulfonyl-phenyl)-1H-pyridazin-4-one], the IC50 was 17 nM. Regarding `O=c1ccn(-c2ccc(OCC(F)(F)F)cc2)nc1-c1ccnn1-c1ccccc1F` [Example 255, 3-[2-(2-Fluoro-phenyl)-2H-pyrazol-3-yl]-1-[4-(2,2,2-trifluoro-ethoxy)-phenyl]-1H-pyridazin-4-one], the IC50 turned out to be 5 nM. `O=c1ccn(-c2ccc(OC(F)(F)F)cc2)nc1-c1ccnn1-c1ccnc2ccc(Cl)cc12` [Example 224, 3-[2-(6-Chloro-quinolin-4-yl)-2H-pyrazol-3-yl]-1-(4-trifluoromethoxy-phenyl)-1H-pyridazin-4-one]: the IC50 amounted to 22 nM. Then `O=c1ccn(-c2cccc(S(=O)(=O)N3CCCCC3)c2)nc1-c1ccnn1-c1ccnc2ccc(Cl)cc12` [Example 267, 3-[2-(6-Chloro-quinolin-4-yl)-2H-pyrazol-3-yl]-1-[3-(piperidine-1-sulfonyl)-phenyl]-1H-pyridazin-4-one], with 40 nM. The result for `O=c1ccn(-c2ccccc2)nc1-c1ccnn1-c1ccc2c(c1)OCO2` [Example 1, 3-(2-Benzo[1,3]dioxol-5-yl-2H-pyrazol-3-yl)-1-phenyl-1H-pyridazin-4-one] reads 63 nM.

Turning to `CCOc1cc(-n2nccc2-c2nn(-c3ccc(OC(F)(F)F)cc3)ccc2=O)ccn1` [Example 200, 3-[2-(2-Ethoxy-pyridin-4-yl)-2H-pyrazol-3-yl]-1-(4-trifluoromethoxy-phenyl)-1H-pyridazin-4-one], the IC50 came out at 46 nM. Regarding `O=c1ccn(-c2ccc3c(c2)OC(F)(F)O3)nc1-c1ccnn1-c1ccccc1F` [Example 174, 1-(2,2-Difluoro-benzo[1,3]dioxol-5-yl)-3-[2-(2-fluoro-phenyl)-2H-pyrazol-3-yl]-1H-pyridazin-4-one], the IC50 was determined as 184 nM. In the case of `CS(=O)(=O)c1cccc(-n2ccc(=O)c(-c3ccnn3-c3cccc4c3OCO4)n2)c1` [Example 106, 3-(2-Benzo[1,3]dioxol-4-yl-2H-pyrazol-3-yl)-1-(3-methanesulfonyl-phenyl)-1H-pyridazin-4-one], the 50% inhibitory concentration (IC50) came out at 40 nM. As to `COc1ccc(-c2csc(-n3nccc3-c3nn(-c4cccc(S(C)(=O)=O)c4)ccc3=O)n2)c(F)c1` [Example 95, 3-{2-[4-(2-Fluoro-4-methoxy-phenyl)-thiazol-2-yl]-2H-pyrazol-3-yl}-1-(3-methanesulfonyl-phenyl)-1H-pyridazin-4-one], the IC50 worked out at 1200 nM.

Turning to `O=c1ccn(-c2ccc(OC(F)(F)F)cc2)nc1-c1ccnn1-c1cccc2c1OC(F)(F)O2` [Example 145, 3-[2-(2,2-Difluoro-benzo[1,3]dioxol-4-yl)-2H-pyrazol-3-yl]-1-(4-trifluoromethoxy-phenyl)-1H-pyridazin-4-one], the concentration for half-maximal inhibition (IC50) stood at 72 nM. The result for `CS(=O)(=O)c1cccc(-n2ccc(=O)c(-c3ccnn3-c3ccc(F)cc3F)n2)c1` [Example 105, 3-[2-(2,4-Difluoro-phenyl)-2H-pyrazol-3-yl]-1-(3-methanesulfonyl-phenyl)-1H-pyridazin-4-one] reads 54 nM; that for `CS(=O)(=O)c1cccc(-n2ccc(=O)c(-c3ccnn3-c3ccccc3)n2)c1` [Example 30, 1-(3-Methanesulfonyl-phenyl)-3-(2-phenyl-2H-pyrazol-3-yl)-1H-pyridazin-4-one], 45 nM. The result for `CS(=O)(=O)c1cccc(-n2ccc(=O)c(-c3ccnn3-c3cccc(Cl)c3)n2)c1` [Example 64, 3-[2-(3-Chloro-phenyl)-2H-pyrazol-3-yl]-1-(3-methanesulfonyl-phenyl)-1H-pyridazin-4-one] reads 39 nM; that for `O=c1ccn(-c2cccc(OC(F)F)c2)nc1-c1ccnn1-c1cccc(F)c1` [Example 98, 1-(3-Difluoromethoxy-phenyl)-3-[2-(3-fluoro-phenyl)-2H-pyrazol-3-yl]-1H-pyridazin-4-one], 222 nM; that for `O=C1CCC(c2ccc(-n3nccc3-c3nn(-c4cccc(OC(F)(F)F)c4)ccc3=O)cc2)=NN1` [Example 78, 3-{2-[4-(6-Oxo-1,4,5,6-tetrahydro-pyridazin-3-yl)-phenyl]-2H-pyrazol-3-yl}-1-(3-trifluoromethoxy-phenyl)-1H-pyridazin-4-one], 1150 nM.

In the case of `O=c1ccn(-c2cccc(OC(F)(F)F)c2)nc1-c1ccnn1-c1cccc2ccccc12` [Example 80, 3-(2-Naphthalen-1-yl-2H-pyrazol-3-yl)-1-(3-trifluoromethoxy-phenyl)-1H-pyridazin-4-one], the half-maximal inhibitory concentration (IC50) is 3 nM. Then `O=c1ccn(-c2cccc(Cl)c2)nc1-c1ccnn1-c1ccc(Cl)c2ccccc12` [Example 244, 3-[2-(4-Chloro-naphthalen-1-yl)-2H-pyrazol-3-yl]-1-(3-chloro-phenyl)-1H-pyridazin-4-one], with 46 nM.
